What was measured:
ICR mice [1] = assay: Anti-epilepsy activity, MES test, mouse; assay type: in vivo
Experimental: In the MES test (Ref., G. Villetti et al. Neuropharmacology 40 (2001) 866-878), an electrical stimulus (mice: 50 mA, 60 Hz, 0.2 sec, and rats: 150 mA, 60 Hz, 0.2 sec in the test animal) supplied by an 11A Shocker (IITC Life Science Company) was delivered through corneal electrodes. All mice or rats assigned to any electroshock at peak time were treated with each test compound sample which was dissolved in 30% PEG 400 or 20% tween 80 prepared by saline solvent applied orally before the test. […] Three doses of the test sample were administered orally to 9-18 animals (3-6 mice per dose) for evaluating the respective doses at which 50% of the animals were protected from seizure (ED50). The ED50 value (median effective dose) was calculated by Litchfield and Wicoxon log-probit method which is a dose-response relationship. Experimental animals, male ICR mice and male SD rats, were purchased from OrientBio, Samtako, or Nara Biotech, Korea, and housed in cages (4-5 mice or 3 rats per cage) for 4-5 days. The range of mice body weight was between 19 and 25 grams and range of rats body weight was between 100 and 130 grams.

ICR mice [2] = assay: Chemical induced seizure model (PIC, picrotoxin); assay type: in vivo
Experimental: Picrotoxin (PIC) were used to induce the behavioral seizures in the experiments. Male ICR mice (purchased from Orient Bio Inc. Korea) of body weight 19-26 g (mice) were used for these studies. The test materials were administered intraperitoneal (ip) route in a volume of 10 ul/g (mice) weight in mice, respectively. Pharmacological effects of the test materials were evaluated to compared test groups (n=6) with a control group (n=6). Control group was administrated vehicle, only. The peak time was determined by administration of test material's random dose for 0.5, 1, 2, 4 hour. The time that the most protect was defined as a peak time and ED50 was determined by other dose administration at the peak time. Chemical (PIC) was dissolved in 0.9% saline and administered subcutaneously (s.c.) at its CD97 (convulsive dose 97%), the dose of Chemical (PIC) that produced clonic seizures in 97% into a loose fold of skin in the midline of the neck in a volume of 10 ul/g (mice) body weight. The animals were then transferred to observation cages and observed continuously for 45 min (PIC). Clonic seizure was elicited in approximately 97% of control group. Protection was defined as a complete absence of clonic seizure over the 45-min observation period. The effective dose of compound necessary to protect against generalized convulsive seizures to 50% of controls (i.e. ED50) was determined by log probit analysis using SPSS software program (SPSS Inc.). (Reference; White H. S., J. H. Woodhead, K. S. Wilcox, J. P. Stables, H. J. Kupferberg, and H. H. Wolf. General Principles; Discovery and Preclinical De-velopment of Antiepileptic Drugs. In: R. H. Levy, R. H. Mattson, B. S. Meldrum, and E. Perucca, eds. Antiepileptic Drugs, 5th Ed. Lippincott Williams & Wilkins, Philadelphia 2002: pp. 36-48.) The obtained results are shown in following Table 10.

Compound: C[C@@H](OS(N)(=O)=O)[C@H](OS(N)(=O)=O)c1ccccc1Cl [Example 85]
- MES test (po) Peak time (ICR mice [1]): 2 h
- responders at 100 mg/kg (ICR mice [1]; po, 100 mg/kg, read-out: MES test (po) efficacy %): 16.6%
- PIC(ip) Peak Time (ICR mice [2]): 4 h
- PIC(ip) efficacy % (ICR mice [2]; 30 mg/kg): 30(33.3%)

From US10351519B2, “Sulfamate derivative compounds, processes for preparing them and their uses” (BIO-PHARM SOLUTIONS CO., LTD., priority 2016, dated 2019)
